Reference: patent US20240384268A1, “Oligonucleotides” (Hudson Institute of Medical Research, priority 2021, published 2024)
In the oligonucleotide strings, read from the 5' end, every base follows the letter of its sugar. An asterisk marks phosphorothioate; unmarked linkages are phosphodiester. Other units and linkages are bracketed, terminal groups are in braces. A string of capitals states the bases alone. m = 2'-O-methyl

Biological target: T1, TLR8 (Homo sapiens, UniProt Q9NR97)
T1 sequence (Q9NR97 27-1041): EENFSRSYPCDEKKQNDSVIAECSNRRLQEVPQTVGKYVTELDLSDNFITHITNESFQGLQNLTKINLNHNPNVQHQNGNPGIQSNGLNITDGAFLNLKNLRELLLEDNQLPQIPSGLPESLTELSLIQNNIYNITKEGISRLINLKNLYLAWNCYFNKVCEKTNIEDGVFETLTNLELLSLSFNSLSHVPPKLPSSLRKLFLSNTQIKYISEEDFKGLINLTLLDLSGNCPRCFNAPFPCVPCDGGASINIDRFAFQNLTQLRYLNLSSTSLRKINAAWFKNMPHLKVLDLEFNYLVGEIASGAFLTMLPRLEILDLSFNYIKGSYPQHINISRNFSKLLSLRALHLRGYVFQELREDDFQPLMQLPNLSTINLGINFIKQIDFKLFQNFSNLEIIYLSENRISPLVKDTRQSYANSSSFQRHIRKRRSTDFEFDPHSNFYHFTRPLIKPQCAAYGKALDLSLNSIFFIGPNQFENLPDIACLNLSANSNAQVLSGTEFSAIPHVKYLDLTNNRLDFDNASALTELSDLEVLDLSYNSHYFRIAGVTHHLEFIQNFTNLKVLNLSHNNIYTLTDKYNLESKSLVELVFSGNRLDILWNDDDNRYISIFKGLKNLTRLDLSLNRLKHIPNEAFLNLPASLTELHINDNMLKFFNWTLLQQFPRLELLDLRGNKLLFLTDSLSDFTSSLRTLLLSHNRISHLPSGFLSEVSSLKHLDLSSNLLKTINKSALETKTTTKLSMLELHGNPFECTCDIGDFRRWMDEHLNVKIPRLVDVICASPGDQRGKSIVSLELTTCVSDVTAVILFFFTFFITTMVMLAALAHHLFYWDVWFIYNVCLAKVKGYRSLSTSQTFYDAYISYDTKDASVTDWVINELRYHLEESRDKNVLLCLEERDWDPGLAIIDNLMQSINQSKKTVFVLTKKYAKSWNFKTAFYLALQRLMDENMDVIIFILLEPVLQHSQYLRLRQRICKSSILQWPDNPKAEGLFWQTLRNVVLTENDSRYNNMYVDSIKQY
Experiment: R848-driven IP-10 production in THP-1 cells (TLR8)
Format: cell-based
Parameters: expressed in transfected cells; dose or concentration left out as unconfirmed
Conditions: R848 7 h; for TLR8 potentiation in THP-1, short 2′OMe oligos (IP-10; in words): oligos overnight; for effect of 3-mer 2′OMe oligos on R848-driven IP-10 in THP-1 (in words): 3-mer oligos overnight
Protocol: FIG. 34: THP-1 cells were pre-treated overnight with […] ASOs, prior to R848 stimulation for 7h. […] All ASO conditions are with R848 co-stimulation.
FIG. 35: THP-1 cells were pre-treated overnight with indicated concentrations of ASOs, prior to R848 stimulation for 7h. […] All ASO conditions are with R848 co-stimulation. SEM and two-way ANOVA with Tukey's multiple comparisons to 660-3b condition are shown.
FIG. 36: A, B, C) HEK-TLR8 cells expressing an NF-κB-luciferase reporter were pre-treated 40 min with […] oligos, prior to Motolimod stimulation (400 nM [B] or 600 nM [A and C] overnight). Data shown are averaged from 2 (B) independent or a single experiment (A and C), completed with 3 biological triplicate. The NF-κB-luciferase values are reported to the Motolimod condition. D) THP-1 cells were pre-treated overnight with […] 3-mer oligos, prior to R848 stimulation ([…]) for 7h. IP-10 levels were measured by ELISA. Data shown are averaged from a single experiment completed with 3 biological triplicate, reported to the R848 only condition. A-E) All oligo conditions are with Motolimod or R848 co-stimulation.
Human IP-10 and IFN-β levels were measured using supernatants from the different cultures and were quantified using IP-10 (BD Biosciences, #550926) or IFN-β (PBL assay science, #41415-1) ELISA kits respectively, according to the manufacturers' protocol. Tetramethylbenzidine substrate (Thermo Fisher Scientific) was used for quantification of the cytokines on a Fluostar OPTIMA (BMG LABTECH) plate-reader.

**Q.** Which results are given for mCmUmU (antisense mC*mU*mU) [660-3]?
**A.** TLR8 potentiation in THP-1, short 2′OMe oligos (IP-10; in words): did not work; TLR8 potentiation in THP-1, short 2′OMe oligos (IP-10; in words) (listed as CUU): did not potentiate TLR8

**Q.** For “mGmAmU (mG*mA*mU) [GAU, 3-mer 2′OMe PS oligo]”, which “effect of 3-mer 2′OMe oligos on R848-driven IP-10 in THP-1 (in words)” value (shortened to “effect of 3-mer 2′OMe oligos”) is on record?
**A.** The value was “robustly the most potent”.

**Q.** “mGmUmA (GUA; all 2'-O-methyl, backbone not given here; further chemistry not fully specified) [shortMut1-3b]” was tested. Which “effect of 3-mer 2′OMe oligos” value did it give?
**A.** The value was “robustly inhibitory”.

**Q.** How did the “effect of 3-mer 2′OMe oligos” value turn out when “mGmUmC (mG*mU*mC) [GUC, 3-mer 2′OMe PS oligo]” was run?
**A.** Its value is “robustly inhibitory”.

**Q.** With “mGmUmG (mG*mU*mG) [GUG, 3-mer 2′OMe PS oligo]” as the substance, how does the “effect of 3-mer 2′OMe oligos” value read?
**A.** The value was “robustly inhibitory”.

**Q.** With “mGmUmU (mG*mU*mU) [GUU, 3-mer 2′OMe PS oligo]” as the substance, how does the “effect of 3-mer 2′OMe oligos” value read?
**A.** The value was “robustly inhibitory”.

**Q.** Which “TLR8 potentiation in THP-1, short 2′OMe oligos (IP-10; in words)” value does the source give for mUmCmG (antisense mU*mC*mG) [660-3b] here?
**A.** The value was “significantly potentiated TLR8 sensing”.
